Where a name gives a salt, the structure may show the parent alone.
How the values were obtained:
[1] = biological target: T1, N-type calcium channel (NTCC) (Homo sapiens, UniProt Q00975); assay: FLIPR calcium mobilization (and/or electrophysiological) assay for N-type calcium channel; type: cell-based; details: calcium mobilization and/or electrophysiological in vitro assay; differentiated IMR32 cells, 90 mM KCl, 5 μM nitrendipine
T1 construct: endogenous in cells; host or cells: differentiated IMR32 cells (ATCC)
Description: Unless noted otherwise, cell culture reagents were purchased from Life Technologies of Rockville, Md. IMR32 cells (American Type Culture Collection, ATCC, Manassas, Va.) were routinely cultured in growth medium consisting of minimum essential medium containing 10% fetal bovine serum (FBS, Hyclone, Logan, Utah), 100 U/mL penicillin, 100 μg/mL streptomycin, 2 mM L-glutamine, 1 mM sodium pyruvate, and 1×MEM non-essential amino acids. 80-90% confluent flasks of cells were differentiated using the following differentiation medium: Growth medium plus 1 mM dibutyryl cyclic AMP (Sigma, St. Louis, Mo.), and 2.5 μM bromodeoxyuridine (Sigma). Cells were differentiated for 8 days by replacing differentiation medium every 2-3 days.
One day prior to performing this assay, differentiated IMR32 cells were treated with 1× CellStripper, and seeded on poly-D-lysine-coated 96-well clear-bottom black plates (Becton Dickinson, Franklin Lakes, N.J.) at 200,000 cells/well. On the day of the assay, the cell plates were washed with IMR32 buffer (127 mM NaCl, 1 mM KCl, 2 mM MgCl2, 700 μM NaH2PO4, 5 mM CaCl2, 5 mM NaHCO3, 8 mM HEPES, 10 mM glucose, pH 7.4), then pre-stimulated with KCl and loaded as follows: 0.05 mL of IMR32 buffer, 0.05 mL of each compound tested diluted in IMR32 buffer containing 20 μM nitrendipine (Sigma), and 0.1 mL KCl dissolved in IMR32 buffer, plus Fluo-4 were added (3 μM final concentration, Molecular Probes, Eugene, Oreg.). Final test compound concentrations ranged from about 846 pM to about 17 μM, final nitrendipine concentration was 5 μM, and final KCl concentration was 90 mM. After 1 hour, the cells were washed twice with 0.05 mL of each compound tested in nitrendipine-containing IMR32 buffer (no KCl or Fluo-4), and then replaced with 0.1 mL of each compound tested in nitrendipine-containing IMR32 buffer. Plates were then transferred to a Fluorimetric Imaging Plate Reader (FLIPR^96, Molecular Devices, Inc., Sunnyvale, Calif.) for assay. The FLIPR measured basal Fluo-4 fluorescence for 315 seconds (i.e., 5 minutes and 15 seconds), then added 0.1 mL KCl agonist dissolved in IMR32 buffer and measured fluorescence for another 45 seconds. Final test compound concentrations on the cells after FLIPR read ranged from about 846 pM to about 17 μM, final nitrendipine concentration was 5 μM, and final KCl concentration was 90 mM. Data were collected over the entire time course and analyzed using Excel, Graph Pad Prism (version 3.02, Graph Pad, San Diego, Calif.), or Activity Base (version 5.1, IDBS, Parsippany, N.J.) software.
N-type calcium channel expressing HEK-293 cells were created in two stages. Stage 1 was created as follows. The rat α1b, and β3 cDNA expression constructs (2.5 μg each) were co-transfected into human embryonic kidney (HEK-293) cells by Lipofectamine Plus reagent (Invitrogen), as per manufacturer's instructions. 24 hours later, cells were split in limiting dilution into multiple 96-well plates in selection media containing 20 μg/mL blasticidin and 500 μg/mL geneticin, and incubated for 3 weeks at 37° C., 5% CO2, 95% humidity. Plates containing ≦1 clone per well were cultured until wells positive for single clones were confluent. Individual clones were then arrayed into columns of a destination 96-well plate, and partly split into 6-well plates for culture maintenance. Array plates were washed once with IMR32 buffer and cells loaded for 1 hour with 0.1 mL of IMR32 buffer containing Fluo-4 (3 μM final concentration, Molecular Probes). Then they were washed twice with 0.1 mL of IMR32 buffer, and replaced with 0.1 mL IMR32 buffer. Plates were then transferred to a FLIPR^96 for assay. The FLIPR measured basal Fluo-4 fluorescence for 315 seconds, then added 0.1 mL KCl agonist dissolved in IMR32 buffer and measured fluorescence for another 45 seconds. Final KCl concentration was 90 mM. Data were collected over the entire time course and analyzed using Excel, Graph Pad Prism, or Activity Base software. […]

[2] = biological target: T2, L-type calcium channel (LTCC) (Rattus norvegicus, UniProt P22002); assay: FLIPR calcium mobilization (and/or electrophysiological) assay for L-type calcium channel; type: cell-based; details: calcium mobilization and/or electrophysiological in vitro assay; differentiated A7r5 cells, 90 mM KCl
T2 construct: differentiated A7r5 cells were trypsinized, then seeded on tissue culture treated 96-well clear-bottom black plates; endogenous in cells; host or cells: differentiated A7r5 cells (ATCC)
Description: A7r5 (ATCC) cells were maintained and routinely cultured in A7r5 growth medium consisting of Dulbecco's Modified Eagles Medium containing 10% FBS, 100 U/mL penicillin, 100 μg/mL streptomycin, 4 mM L-glutamine, and 0.15% sodium bicarbonate. 80-90% confluent flasks of cells were differentiated using the following differentiation medium: A7r5 Growth Medium plus 1 mM dibutyryl cyclic AMP (Sigma). Cells were differentiated for 8 days by replacing differentiation medium every 2-3 days.
One day prior to performing this assay, differentiated A7r5 cells were trypsinized, then seeded on tissue culture treated 96-well clear-bottom black plates (Becton Dickinson, Franklin Lakes, N.J.) at a dilution of 1:1 from a confluent T150 cm^2 flask. On the day of the assay, the plates were washed with A7r5 wash buffer (127 mM NaCl, 2 mM MgCl2, 700 μM NaH2PO4, 5 mM CaCl2, 5 mM NaHCO3, 8 mM HEPES, 10 mM glucose, pH 7.4), then loaded with 0.1 mL of A7r5 wash buffer containing Fluo-4 (3 μM final concentration, Molecular Probes, Eugene, Oreg.). After 1 hour, the cells were washed with 0.1 mL A7r5 wash buffer and resuspended in 0.05 mL A7r5 assay buffer that was composed of A7r5 wash buffer plus 50 μM valinomycin (Sigma). Plates were then transferred to a FLIPR^96 for assay. The FLIPR measured basal Fluo-4 fluorescence for 15 seconds, then added 0.05 mL of each compound tested diluted in A7r5 assay buffer at final concentrations ranging from about 846 pM to about 17 μM. Fluo-4 fluorescence was then measured for 5 minutes. 0.1 mL KCl agonist dissolved in A7r5 assay buffer was then added to the cells to produce a final concentration of 90 mM KCl, and fluorescence was measured for another 45 seconds. Data were collected over the entire time course and analyzed using Excel, Graph Pad Prism, or Activity Base software.

T2 sequence (P22002 whole entry): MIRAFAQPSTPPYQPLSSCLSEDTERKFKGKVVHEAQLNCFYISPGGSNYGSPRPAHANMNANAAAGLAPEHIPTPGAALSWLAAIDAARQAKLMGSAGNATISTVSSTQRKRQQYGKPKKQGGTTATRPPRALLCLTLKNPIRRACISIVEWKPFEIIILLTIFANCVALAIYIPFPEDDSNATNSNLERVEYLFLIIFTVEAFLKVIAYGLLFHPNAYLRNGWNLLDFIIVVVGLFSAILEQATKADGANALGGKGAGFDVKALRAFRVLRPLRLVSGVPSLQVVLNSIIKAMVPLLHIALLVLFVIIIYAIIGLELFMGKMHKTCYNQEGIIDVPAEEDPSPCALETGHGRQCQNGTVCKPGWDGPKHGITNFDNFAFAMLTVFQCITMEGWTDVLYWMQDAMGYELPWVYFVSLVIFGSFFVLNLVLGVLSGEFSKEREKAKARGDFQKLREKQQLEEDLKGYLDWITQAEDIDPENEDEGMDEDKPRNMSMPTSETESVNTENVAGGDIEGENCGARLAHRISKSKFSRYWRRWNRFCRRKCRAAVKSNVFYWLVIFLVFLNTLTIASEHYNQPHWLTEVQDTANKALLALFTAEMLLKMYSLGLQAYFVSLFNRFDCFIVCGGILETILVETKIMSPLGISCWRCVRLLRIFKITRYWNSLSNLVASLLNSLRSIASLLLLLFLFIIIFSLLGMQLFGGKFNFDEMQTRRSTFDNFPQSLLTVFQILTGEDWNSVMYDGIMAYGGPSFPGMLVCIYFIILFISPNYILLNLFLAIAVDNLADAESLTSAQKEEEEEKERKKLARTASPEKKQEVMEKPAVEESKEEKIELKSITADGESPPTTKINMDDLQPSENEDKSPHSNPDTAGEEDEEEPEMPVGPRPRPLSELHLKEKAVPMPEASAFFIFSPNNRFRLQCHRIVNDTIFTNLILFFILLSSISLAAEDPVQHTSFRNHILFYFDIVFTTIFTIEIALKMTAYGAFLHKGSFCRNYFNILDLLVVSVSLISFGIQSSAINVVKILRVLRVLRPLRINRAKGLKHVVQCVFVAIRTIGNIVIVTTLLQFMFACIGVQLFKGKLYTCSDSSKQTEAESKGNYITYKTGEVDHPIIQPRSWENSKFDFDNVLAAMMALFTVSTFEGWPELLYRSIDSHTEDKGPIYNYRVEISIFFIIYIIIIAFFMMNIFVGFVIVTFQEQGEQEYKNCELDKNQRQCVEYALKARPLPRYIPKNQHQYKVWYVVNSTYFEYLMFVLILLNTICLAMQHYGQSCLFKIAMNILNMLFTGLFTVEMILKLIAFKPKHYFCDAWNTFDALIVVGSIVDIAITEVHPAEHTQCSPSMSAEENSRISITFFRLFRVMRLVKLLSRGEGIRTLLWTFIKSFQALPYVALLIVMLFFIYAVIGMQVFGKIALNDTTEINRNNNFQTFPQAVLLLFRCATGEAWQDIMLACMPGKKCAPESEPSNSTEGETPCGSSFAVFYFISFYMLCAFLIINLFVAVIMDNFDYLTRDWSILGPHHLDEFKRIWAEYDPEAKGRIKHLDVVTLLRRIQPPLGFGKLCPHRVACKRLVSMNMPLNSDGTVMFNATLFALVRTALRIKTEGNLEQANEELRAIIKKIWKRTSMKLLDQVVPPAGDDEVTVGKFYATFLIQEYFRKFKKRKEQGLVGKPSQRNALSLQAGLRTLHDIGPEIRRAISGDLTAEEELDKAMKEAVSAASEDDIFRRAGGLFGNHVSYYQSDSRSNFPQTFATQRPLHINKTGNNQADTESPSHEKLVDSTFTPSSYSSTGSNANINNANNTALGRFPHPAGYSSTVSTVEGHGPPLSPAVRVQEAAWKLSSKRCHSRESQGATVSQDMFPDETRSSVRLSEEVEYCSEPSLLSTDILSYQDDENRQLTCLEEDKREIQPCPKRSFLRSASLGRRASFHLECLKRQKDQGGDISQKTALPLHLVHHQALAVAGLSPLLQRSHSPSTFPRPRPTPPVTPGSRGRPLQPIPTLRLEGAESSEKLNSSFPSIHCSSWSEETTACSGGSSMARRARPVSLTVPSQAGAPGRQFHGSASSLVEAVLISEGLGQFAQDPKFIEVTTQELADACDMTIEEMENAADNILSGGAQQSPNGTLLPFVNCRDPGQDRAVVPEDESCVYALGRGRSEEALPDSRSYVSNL
T2 sequence (P54290 25-944 partner limits assumed): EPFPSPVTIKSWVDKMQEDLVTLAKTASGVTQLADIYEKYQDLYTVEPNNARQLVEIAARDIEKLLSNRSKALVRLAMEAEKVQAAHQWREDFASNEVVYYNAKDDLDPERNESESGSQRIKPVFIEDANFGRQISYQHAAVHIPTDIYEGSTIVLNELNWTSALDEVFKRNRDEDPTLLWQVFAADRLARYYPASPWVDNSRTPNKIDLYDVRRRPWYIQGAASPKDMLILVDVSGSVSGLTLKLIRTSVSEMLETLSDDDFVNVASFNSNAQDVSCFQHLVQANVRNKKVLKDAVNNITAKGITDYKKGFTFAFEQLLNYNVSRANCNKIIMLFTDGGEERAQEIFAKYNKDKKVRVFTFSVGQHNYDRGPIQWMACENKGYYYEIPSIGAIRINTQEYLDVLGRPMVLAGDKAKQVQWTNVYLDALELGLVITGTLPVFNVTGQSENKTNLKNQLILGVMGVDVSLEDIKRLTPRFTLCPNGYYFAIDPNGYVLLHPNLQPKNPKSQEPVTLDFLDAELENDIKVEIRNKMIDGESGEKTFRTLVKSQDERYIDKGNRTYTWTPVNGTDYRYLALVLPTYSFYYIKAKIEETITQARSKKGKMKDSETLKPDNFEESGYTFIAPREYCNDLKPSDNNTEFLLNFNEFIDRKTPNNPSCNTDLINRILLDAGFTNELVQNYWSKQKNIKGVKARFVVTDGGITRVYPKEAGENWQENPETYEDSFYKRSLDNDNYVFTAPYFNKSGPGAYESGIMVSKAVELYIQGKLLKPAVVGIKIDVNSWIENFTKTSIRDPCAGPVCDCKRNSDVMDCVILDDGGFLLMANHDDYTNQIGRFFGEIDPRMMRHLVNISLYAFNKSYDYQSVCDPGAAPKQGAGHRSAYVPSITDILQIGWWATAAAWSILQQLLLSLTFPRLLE
T2 sequence (P54290 945-1091 partner limits assumed): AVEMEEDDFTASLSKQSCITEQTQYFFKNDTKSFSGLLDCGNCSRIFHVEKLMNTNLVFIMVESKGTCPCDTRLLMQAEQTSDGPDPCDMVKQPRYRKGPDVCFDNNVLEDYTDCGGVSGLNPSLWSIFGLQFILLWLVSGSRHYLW
T2 sequence (P54287 whole entry partner): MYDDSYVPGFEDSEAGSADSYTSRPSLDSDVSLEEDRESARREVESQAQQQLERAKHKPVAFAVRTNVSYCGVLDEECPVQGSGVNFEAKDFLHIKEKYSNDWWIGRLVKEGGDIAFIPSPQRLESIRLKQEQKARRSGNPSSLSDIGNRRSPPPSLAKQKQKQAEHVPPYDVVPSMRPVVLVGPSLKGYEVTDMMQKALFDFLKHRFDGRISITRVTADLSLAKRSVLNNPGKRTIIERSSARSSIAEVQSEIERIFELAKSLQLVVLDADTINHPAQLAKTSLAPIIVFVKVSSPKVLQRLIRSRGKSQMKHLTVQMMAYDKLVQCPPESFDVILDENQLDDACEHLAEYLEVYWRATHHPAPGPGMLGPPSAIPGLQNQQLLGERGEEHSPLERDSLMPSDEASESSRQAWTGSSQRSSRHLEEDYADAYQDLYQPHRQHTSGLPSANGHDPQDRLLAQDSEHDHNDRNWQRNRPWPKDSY

SMILES | IC50 [1] [µM] | IC50 [2] [µM]
CNC(Cc1ccccc1C)C(=O)N1CCC(N(C2CC2)S(=O)(=O)c2cccc(C(F)(F)F)c2)CC1 (stereo not drawn) [N-Cyclopropyl-N-[1-(2-methylamino-3-o-tolylpropionyl)piperidin-4-yl]-3-trifluoromethylbenzenesulfonamide] | 0.39 | 10 to 20
CN[C@@H](CC(C)C)C(=O)N1CCC(N(CC(C)C)S(=O)(=O)c2cccc(C(F)(F)F)c2)CC1 [(2S) N-i-butyl-N-[1-(4-methyl-2-methylaminopentanoyl)piperidin-4-yl]-3-trifluoromethylbenzenesulfonamide] | 0.95 | 9.12
CN[C@@H](CC(C)C)C(=O)N1CCC(N(C(C)C)S(=O)(=O)c2cccc(C(F)(F)F)c2)CC1 [(2S) N-Isopropyl-N-[1-(4-methyl-2-methylaminopentanoyl)-piperidin-4-yl]-3-trifluoromethylbenzenesulfonamide fumarate] | 0.87 | > 20
O=C(CC=C(c1ccc(F)cc1)c1ccc(F)cc1)N1CCC(N(C2CC2)S(=O)(=O)c2ccccc2)CC1 [N-cyclopropyl-N-{1-[4,4-bis(4-fluorophenyl)but-3-enoyl]piperidin-4-yl}benzenesulfonamide] | 1.24 | 2.59
CN[C@@H](CC(C)C)C(=O)N1CCC(N(C2CC2)S(=O)(=O)c2cccc(C(F)(F)F)c2)CC1 [(2S) N-cyclopropyl-N-[1-(4-methyl-2-methylamino-pentanoyl)piperidin-4-yl]-3-trifluoromethylbenzenesulfonamide] | 0.36 | 10
O=C(CCC(c1ccc(F)cc1)c1ccc(F)cc1)N1CCC(N(C2CC2)S(=O)(=O)c2ccccc2)CC1 [N-cyclopropyl-N-{1-[4,4-bis(4-fluorophenyl)butanoyl]piperidin-4-yl}benzenesulfonamide] | 1.09 | 3.24
O=C(CCC(c1ccc(F)cc1)c1ccc(F)cc1)N1CCC(N(C2CC2)S(=O)(=O)c2cccc(F)c2)CC1 [N-cyclopropyl-N-{1-[4,4-bis(4-fluorophenyl)butanoyl]piperidin-4-yl}-3-fluorobenzenesulfonamide] | 0.97 | 1.43
O=S(=O)(c1cccc(C(F)(F)F)c1)N(C1CC1)C1CCN(CCOC(c2ccc(F)cc2)c2ccc(F)cc2)CC1 [N-Cyclopropyl-N-{1-[2-bis(4-fluorophenyl)methoxyethyl]piperidin-4-yl}-3-trifluoromethylbenzenesulfonamide] | 0.78 | 2.23
CCCC(CC(=O)N1CCC(N(C2CC2)S(=O)(=O)c2cccc(C(F)(F)F)c2)CC1)N1CCSCC1 (stereo not drawn) [N-Cyclopropyl-N-[1-(3-thiomorpholin-4-yl-hexanoyl)piperidin-4-yl]-3-trifluoromethylbenzenesulfonamide] | 0.28 | 10 to 20
O=S(=O)(c1cccc(C(F)(F)F)c1)N(C1CC1)C1CCN(Cc2ccnc3ccccc23)CC1 [N-cyclopropyl-N-[1-(4-quinolinylmethyl)piperidin-4-yl]-3-trifluoromethylbenzenesulfonamide] | 0.86 | 1.7
CCCc1ccc(S(=O)(=O)N2CCC(N(C3CC3)S(=O)(=O)c3cccc(C(F)(F)F)c3)CC2)cc1 [N-Cyclopropyl-N-[1-(4-propylphenylsulfonyl)piperidin-4-yl]-3-trifluoromethylbenzenesulfonamide] | 0.44 | 0.94
COc1ccc(C(=O)N2CCC(N(C3CC3)S(=O)(=O)c3cccc(C(F)(F)F)c3)CC2)cc1C(F)(F)F [N-Cyclopropyl-N-{1-[(3-trifluoromethyl-4-methoxy)benzoyl]piperidin-4-yl}-3-trifluoromethylbenzenesulfonamide] | 0.3 | 4.57
CN[C@@H](CC(C)C)C(=O)N1CCC(N(C)S(=O)(=O)c2cccc(C(F)(F)F)c2)CC1 [(2S) N-Methyl-N-[1-(4-methyl-2-methylaminopentanoyl)-piperidin-4-yl]-3-trifluoromethylbenzenesulfonamide fumarate] | 0.39 | 5.12
N[C@@H](C(=O)N1CCC(N(C2CC2)S(=O)(=O)c2cccc(C(F)(F)F)c2)CC1)C1CCCCC1 [(2R) N-[1-(2-Amino-2-cyclohexylethanoyl)piperidin-4-yl]-N-cyclopropyl-3-trifluoromethylbenzenesulfonamide] | 0.44 | > 20
CN[C@@H](CC(C)C)C(=O)N1CCC(N(C2CCOC2)S(=O)(=O)c2cccc(C(F)(F)F)c2)CC1 (stereo partly drawn) [(2S) N-[1-(4-Methyl-2-methylaminopentanoyl)piperidin-4-yl]-N-(tetrahydrofuran-3-yl)-3-trifluoromethylbenzenesulfonamide fumarate] | 1.84 | –
CN[C@@H](CC(C)C)C(=O)N1CCC(N(C2CC2)S(=O)(=O)c2cccc(C#N)c2)CC1 [(2S) N-cyclopropyl-N-[1-(4-methyl-2-methylaminopentanoyl)-piperidin-4-yl]-3-cyanobenzenesulfonamide] | 4.27 | –
CN[C@@H](CC(C)C)C(=O)N1CCC(N(CC2CC2)S(=O)(=O)c2cccc(C(F)(F)F)c2)CC1 [(2S) N-Cyclopropylmethyl-N-[1-(4-methyl-2-methylamino-pentanoyl)piperidin-4-yl]-3-trifluoromethylbenzenesulfonamide fumarate] | 1.31 | –
CN[C@@H](CC(C)C)C(=O)N1CCC(N(C[C@@H]2CCCO2)S(=O)(=O)c2cccc(C(F)(F)F)c2)CC1 [(2S) N-[1-(4-methyl-2-methylaminopentanoyl)piperidin-4-yl]-N-(tetrahydrofuran-2-yl)methyl-3-trifluoromethylbenzenesulfonamide] | 5.06 | –
CN[C@@H](CC(C)C)C(=O)N1CCC(N(C2CCCC2)S(=O)(=O)c2cccc(C(F)(F)F)c2)CC1 [(2S) N-Cyclopentyl-N-[1-(4-methyl-2-methylamino-pentanoyl)piperidin-4-yl]-3-trifluoromethylbenzenesulfonamide fumarate] | 1.56 | –

From US9000174B2, “4-phenylsulfonamidopiperidines as calcium channel blockers” (Purdue Pharma L.P., priority 2004, dated 2015)
